Assays:
[1] = Accelerated stress test, stability at 60°C/80% RH (XRPD and HPLC); format: physicochemical; settings: for Impurity 1 / Impurity 2 / Impurity 3 / Impurity 4 / Impurity 5 / Total impurities: 60°C/80% RH open storage
Method: (§1) Crystalline materials of Compound A of the present invention were exposed to various temperature and humidity stress conditions and investigated by XRPD and HPLC in order to investigate their physical and chemical stability.
The crystalline form of Compound A of the present invention (prepared according to the procedure described in Example 1 and 3, respectively) was open stored under heat and humidity stress conditions of 60° C. and 80% RH for 3 days.
For example, the increase in total impurities of crystalline compound A obtained according to the procedure of Example 3 was below 0.5%. Table 9, provides the chemical stability data of the crystalline compound A obtained according to the procedure of Example 1.

[2] = Gravimetric moisture sorption; format: physicochemical; settings: 0 to 90% relative humidity, 25.0°C
Method: The crystalline form of Compound A of the present invention was subjected to a gravimetric moisture sorption experiment using a DVS intrinsic moisture sorption analyzer (Surface Measurement System). The measurement was conducted in relative humidity steps of 10%. The time per step was set to a minimum of 5 minutes and a maximum of 6 hours. If an equilibrium condition with a constant mass of ±0.02% within 10 min was reached before the maximum time, the subsequent step was applied before the maximum time of 6 hours. If no equilibrium was achieved the consecutive humidity step was applied after the maximum time of 6 hours. The temperature was (25.0±0.1° C.)

[3] = Accelerated stress test, stability at 70°C and 105°C (XRPD and HPLC); format: physicochemical; settings: for Impurity 1 / Impurity 2 / Impurity 3 / Impurity 4 / Impurity 5 / Total Imp.: closed glass container
Method: as §1
The crystalline form of Compound A of the present invention (prepared according to the procedure described in Example 1) was stored in closed glass containers at heat stress condition of 70° C. for 3 weeks. In addition, the crystalline form of Compound A of the present invention (prepared according to the procedures described in Example 1 and 3, respectively) was stored in closed glass containers at heat stress condition of 105° C. for 24 hours.
For example, the increase in total impurities of crystalline compound A obtained according to the procedure of Example 3 was below 0.5%. Table 10, provides the chemical stability data of the crystalline compound A obtained according to the procedure of Example 1.

[4] = tiny-TIM in vitro bioaccessibility under simulated fasted conditions; format: in vitro ADME
Method: A tiny-TIM system was used as a model for the simulation of the physiological processes occurring in human stomach and small intestine to study the in vitro bioaccessibility of the crystalline Compound A of the present invention (prepared according to the procedure described in Example 1) under simulated fasted conditions. Thereby, the impact of drug substance particle size distribution (PSD) and amorphous content on bioaccessibility was evaluated by using tablets manufactured from a range of drug substance batches with different amorphous contents and variations in PSD. The investigated drug products also cover extreme conditions such as low amorphous content and coarse PSD as well as high amorphous content and fine PSD.

[5] = Accelerated stress test, stability at 25°C/60% RH (XRPD and HPLC); format: physicochemical; settings: Example 1 material; for Impurity 1 / Impurity 2 / Impurity 3 / Impurity 4 / Impurity 5 / Total impurities: 25°C/60% RH open storage
Method: as §1
The crystalline form of Compound A of the present invention (prepared according to the procedure described in Example 1) was open stored under humidity stress conditions of 25° C. and 60% RH for 6 months.

[6] = Accelerated stress test, stability at 40°C/75% RH (XRPD and HPLC); format: physicochemical; settings: Example 1 material
Method: as §1
The crystalline form of Compound A of the present invention (prepared according to the procedure described in Example 1) was open stored under heat and humidity stress conditions of 40° C. and 75% RH for 6 months.

[7] = Example 1 material, open storage 60°C/80% RH, 3 days
[8] = Example 3 material, open storage 60°C/80% RH, 3 days
[9] = Example 1 material, 70°C, 3 weeks
[10] = Example 1 material, 105°C, 24 hours
[11] = Example 1 material, 70°C, 1 week
[12] = Example 1 material, 70°C, 2 weeks
[13] = Example 1 material, closed glass containers, 70°C, 3 weeks
[14] = Example 1 material, closed glass containers, 105°C, 24 hours
[15] = Example 3 material, closed glass containers, 105°C, 24 hours
[16] = open storage 25°C/60% RH, 6 months
[17] = initial, before 40°C/75% RH storage
[18] = open storage 40°C/75% RH, 6 months

Cc1c(C(=O)O)ccc2c3n(nc12)[C@@H]1[C@H](C3)N(CC2CC2)[C@@]2(C(=O)Nc3cc(Cl)ccc32)[C@H]1c1cccc(Cl)c1F [crystalline form of Compound A, (2′S,3′S,3a′S,10a′S)-6-chloro-3′-(3-chloro-2-fluorophenyl)-1′-(cyclopropylmethyl)-6′-methyl-2-oxo-1,2,3′,3a′,10′,10a′-hexahydro-1′H-spiro[indole-3,2′-pyrrolo[2′,3′:4,5]pyrrolo[1,2-b]indazole]-7′-carboxylic acid]
Impurity 1 ([1]; Example 1 material, 3 days): 0.07% | Impurity 2 ([1]; Example 1 material, 3 days): ≤0.05% | Impurity 3 ([1]; Example 1 material, 3 days): 0.07% | Impurity 4 ([1]; Example 1 material, 3 days): 0.24% | Impurity 5 ([1]; Example 1 material, 3 days): 0.31% | Total impurities ([1]; Example 1 material, 3 days): 0.69% | Impurity 1 ([1]; Example 1 material, Start): 0.08% | Impurity 2 ([1]; Example 1 material, Start): 0.06% | Impurity 3 ([1]; Example 1 material, Start): ≤0.05% | Impurity 4 ([1]; Example 1 material, Start): 0.26% | Impurity 5 ([1]; Example 1 material, Start): 0.26% | Total impurities ([1]; Example 1 material, Start): 0.66% | stability under stress conditions (summary) ([1]; Example 1 material, 60°C/80% relative humidity, 3 days): stable | chemical stability: impurity profiles of initial samples vs stressed samples [1, 7]: no significant increase of chemical impurities | physical stability: XRPD of initial samples vs stressed samples [1, 7]: No differences in reflection positions | physical and chemical stability under stress conditions (summary) ([1]; Example 3 material, 60°C/80% relative humidity, 3 days): physically and chemically stable | increase in total impurities [1, 8]: below 0.5% | physical stability: XRPD of initial samples vs stressed samples [1, 8]: No differences in reflection positions | water uptake ([2]; material obtained from ACN/H2O (Example 3)): about 3.1 % (w/w) | water uptake ([2]; material obtained from IPA/H2O (Example 1)): about 3.6 % (w/w) | physical and chemical stability under temperature stress (summary) [3, 9]: physically and chemically stable | physical and chemical stability under temperature stress (summary) [3, 10]: physically and chemically stable | Impurity 1 [3, 11]: 0.07% | Impurity 2 [3, 11]: ≤0.05% | Impurity 3 [3, 11]: 0.07% | Impurity 4 [3, 11]: 0.24% | Impurity 5 [3, 11]: 0.26% | Total Imp. [3, 11]: 0.64% | Impurity 1 [3, 12]: 0.07% | Impurity 2 [3, 12]: ≤0.05% | Impurity 3 [3, 12]: 0.06% | Impurity 4 [3, 12]: 0.23% | Impurity 5 [3, 12]: 0.25% | Total Imp. [3, 12]: 0.61% | Impurity 1 [3, 9]: 0.07% | Impurity 2 [3, 9]: ≤0.05% | Impurity 3 [3, 9]: 0.07% | Impurity 4 [3, 9]: 0.24% | Impurity 5 [3, 9]: 0.31% | Total Imp. [3, 9]: 0.69% | Impurity 1 [3, 10]: 0.07% | Impurity 2 [3, 10]: ≤0.05% | Impurity 3 [3, 10]: 0.06% | Impurity 4 [3, 10]: 0.23% | Impurity 5 [3, 10]: 0.25% | Total Imp. [3, 10]: 0.61% | Impurity 1 ([3]; Example 1 material, Start): 0.08% | Impurity 2 ([3]; Example 1 material, Start): 0.06% | Impurity 3 ([3]; Example 1 material, Start): ≤0.05% | Impurity 4 ([3]; Example 1 material, Start): 0.26% | Impurity 5 ([3]; Example 1 material, Start): 0.26% | Total Imp. ([3]; Example 1 material, Start): 0.66% | chemical stability: impurity profiles of initial samples vs stressed samples [3, 13]: remained chemically stable | physical stability: XRPD of initial samples vs stressed samples [3, 13]: No differences in reflection positions | chemical stability: impurity profiles of initial samples vs stressed samples [3, 14]: remained chemically stable | physical stability: XRPD of initial samples vs stressed samples [3, 14]: No differences in reflection positions | physical and chemical stability under temperature stress (summary) ([3]; Example 3 material, 105°C, 24 hours): physically and chemically stable | increase in total impurities [3, 15]: below 0.5% | physical stability: XRPD of initial samples vs stressed samples [3, 15]: No differences in reflection positions | bioaccessibility profile, crystalline form versus amorphous Compound A ([4]; tablets): comparable bioaccessibility profiles | effect of PSD and amorphous content on bioaccessibility and concentration profiles ([4]; tablets from batches of Table 15 (amorphous content 6-75%, D50 3.6-25.0 μm)): did not have a significant effect | Impurity 1 ([5]; 1 month): 0.07% | Impurity 2 ([5]; 1 month): ≤0.05% | Impurity 3 ([5]; 1 month): 0.06% | Impurity 4 ([5]; 1 month): 0.23% | Impurity 5 ([5]; 1 month): 0.25% | Total impurities ([5]; 1 month): 0.61% | Impurity 1 ([5]; 2 months): 0.07% | Impurity 2 ([5]; 2 months): ≤0.05% | Impurity 3 ([5]; 2 months): 0.06% | Impurity 4 ([5]; 2 months): 0.23% | Impurity 5 ([5]; 2 months): 0.25% | Total impurities ([5]; 2 months): 0.61% | Impurity 1 ([5]; 3 months): 0.07% | Impurity 2 ([5]; 3 months): ≤0.05% | Impurity 3 ([5]; 3 months): ≤0.05% | Impurity 4 ([5]; 3 months): 0.23% | Impurity 5 ([5]; 3 months): 0.25% | Total impurities ([5]; 3 months): 0.60% | Impurity 1 ([5]; 6 months): 0.07% | Impurity 2 ([5]; 6 months): ≤0.05% | Impurity 3 ([5]; 6 months): 0.06% | Impurity 4 ([5]; 6 months): 0.23% | Impurity 5 ([5]; 6 months): 0.27% | Total impurities ([5]; 6 months): 0.63% | Impurity 1 ([5]; Start): 0.08% | Impurity 2 ([5]; Start): 0.06% | Impurity 3 ([5]; Start): ≤0.05% | Impurity 4 ([5]; Start): 0.26% | Impurity 5 ([5]; Start): 0.26% | Total impurities ([5]; Start): 0.66% | stability under stress conditions (summary) ([5]; 25°C/60% relative humidity, 6 months): stable | chemical stability: impurity profile of initial samples vs stressed samples [5, 16]: no significant increase of chemical impurities | physical stability: XRPD of initial sample vs stressed sample [5, 16]: No differences in reflection positions | stability under accelerated stress conditions (summary) ([6]; 40°C/75% relative humidity, 6 months): stable | Impurity A, Initial Peak Area-% [6, 17]: 0.06% | Impurity B, Initial Peak Area-% [6, 17]: 0.06% | Impurity C, Initial Peak Area-% [6, 17]: 0.05% | Impurity D, Initial Peak Area-% [6, 17]: 0.23% | Impurity E, Initial Peak Area-% [6, 17]: 0.31% | Total impurities, Initial Peak Area-% [6, 17]: 0.71% | Impurity A, Peak Area-% at 6 months [6, 18]: Not detected | Impurity B, Peak Area-% at 6 months [6, 18]: 0.06% | Impurity C, Peak Area-% at 6 months [6, 18]: 0.06% | Impurity D, Peak Area-% at 6 months [6, 18]: 0.25% | Impurity E, Peak Area-% at 6 months [6, 18]: 0.33% | Total impurities, Peak Area-% at 6 months [6, 18]: 0.70% | chemical stability: impurity profile of initial sample vs stressed sample [6, 18]: no significant increase of chemical impurities | physical stability: XRPD of initial sample vs stressed sample [6, 18]: No differences in reflection positions
